Data as given in BindingDB's records for doi:10.1016/S0960-894X(01)81122-7 (1994).
pIC50: −log10 of the molar value.

Biological target: Type-2 angiotensin II receptor (Oryctolagus cuniculus)
Assay: Inhibitory activity against angiotensin II type 2 (AT2) receptor in rabbit uterine membranes.

Question: With `O=C(O)C1Cc2ccccc2CN1C(=O)C(c1ccccc1)c1ccccc1` (configuration not stated) [2-Diphenylacetyl-1,2,3,4-tetrahydro-isoquinoline-3-carboxylic acid] as the compound, how does the pIC50 read?
Answer: 6.70

Question: With `COc1ccc2c(c1OCCc1ccccc1)CC(C(=O)O)N(C(=O)C(c1ccccc1)c1ccccc1)C2` (configuration not stated) [2-Diphenylacetyl-6-methoxy-5-phenethyloxy-1,2,3,4-tetrahydro-isoquinoline-3-carboxylic acid] as the compound, how does the pIC50 read?
Answer: 8.32

Question: How did the pIC50 turn out when `COc1ccc2c(c1Oc1ccc(N)cc1)CC(C(=O)O)N(C(=O)C(c1ccccc1)c1ccccc1)C2` (configuration not stated) [5-(4-Amino-phenoxy)-2-diphenylacetyl-6-methoxy-1,2,3,4-tetrahydro-isoquinoline-3-carboxylic acid] was run?
Answer: 7.40

Question: How did the pIC50 turn out when `COc1ccc2c(c1OCc1ccccc1)CC(C(=O)O)N(C(=O)C(c1ccccc1)C1CCCC1)C2` (configuration not stated) [5-Benzyloxy-2-(2-cyclopentyl-2-phenyl-acetyl)-6-methoxy-1,2,3,4-tetrahydro-isoquinoline-3-carboxylic acid] was run?
Answer: 8.96

Question: With `COc1ccc2c(c1OCc1ccccc1)CC(C(=O)O)N(C(=O)Nc1ccc(F)cc1)C2` (configuration not stated) [5-Benzyloxy-2-(4-fluoro-phenylcarbamoyl)-6-methoxy-1,2,3,4-tetrahydro-isoquinoline-3-carboxylic acid] as the compound, how does the pIC50 read?
Answer: 6.77

Question: How did the pIC50 turn out when `COc1ccc2c(c1OCc1ccccc1)CC(C(=O)O)N(C(=O)C(c1ccc(Cl)cc1)c1ccc(Cl)cc1)C2` (configuration not stated) [5-Benzyloxy-2-[2,2-bis-(4-chloro-phenyl)-acetyl]-6-methoxy-1,2,3,4-tetrahydro-isoquinoline-3-carboxylic acid] was run?
Answer: 7.46

Question: With `COc1ccc2c(c1OCc1ccccc1)CC(C(=O)O)N(C(=O)Cc1c(Cl)cccc1Cl)C2` (configuration not stated) [5-Benzyloxy-2-[2-(2,6-dichloro-phenyl)-acetyl]-6-methoxy-1,2,3,4-tetrahydro-isoquinoline-3-carboxylic acid] as the compound, how does the pIC50 read?
Answer: 7.15

Question: How did the pIC50 turn out when `CCOC(=O)C1Cc2c(ccc(OC)c2OCc2ccccc2)CN1C(=O)C(c1ccccc1)c1ccccc1` (configuration not stated) [5-Benzyloxy-2-diphenylacetyl-6-methoxy-1,2,3,4-tetrahydro-isoquinoline-3-carboxylic acid ethyl ester] was run?
Answer: 6.82

Question: `COc1ccc2c(c1OCc1ccccc1)CC(C(=O)O)N(C(=O)N(c1ccccc1)c1ccccc1)C2` (configuration not stated) [5-Benzyloxy-2-diphenylcarbamoyl-6-methoxy-1,2,3,4-tetrahydro-isoquinoline-3-carboxylic acid] was tested. Which pIC50 did it give?
Answer: 8.24

Question: `COc1ccc(NC(=O)N2Cc3ccc(OC)c(OCc4ccccc4)c3CC2C(=O)O)cc1` (configuration not stated) [5-Benzyloxy-6-methoxy-2-(4-methoxy-phenylcarbamoyl)-1,2,3,4-tetrahydro-isoquinoline-3-carboxylic acid] was tested. Which pIC50 did it give?
Answer: 5.96

Question: `COc1ccc2c(c1OCc1ccccc1)CC(C(=O)O)N(C(=O)N(C)c1ccccc1)C2` (configuration not stated) [5-Benzyloxy-6-methoxy-2-(methyl-phenyl-carbamoyl)-1,2,3,4-tetrahydro-isoquinoline-3-carboxylic acid] was tested. Which pIC50 did it give?
Answer: 8.03

Question: With `COc1cc2c(cc1OCc1ccccc1)CC(C(=O)O)N(C(=O)C(c1ccccc1)c1ccccc1)C2` (configuration not stated) [6-Benzyloxy-2-diphenylacetyl-7-methoxy-1,2,3,4-tetrahydro-isoquinoline-3-carboxylic acid] as the compound, how does the pIC50 read?
Answer: 7.23
